This is an account of results in ChEMBL document CHEMBL4825673, “Total and Semisyntheses of Polymyxin Analogues with 2-Thr or 10-Thr Modifications to Decipher the Structure-Activity Relationship and Improve the Antibacterial Activity” (J Med Chem, 2021).

In brackets after ≈: the same amount, converted by molar mass.

Series [1] concerns Pseudomonas aeruginosa. The series is described as follows: Antibacterial activity against Pseudomonas aeruginosa PAO1 assessed as inhibition of bacterial growth incubated for 24 hrs by broth microdilution method. In kind it is functional. Particulars: read-out: MIC100.
The test system of series [2] is Escherichia coli. The series is described as follows: Antibacterial activity against Escherichia coli assessed as inhibition of bacterial growth incubated for 24 hrs by broth microdilution method. It counts as functional. Particulars: read-out: MIC100.
Series [3] has as its system Klebsiella pneumoniae. Kind of series: Antibacterial activity against Klebsiella pneumoniae assessed as inhibition of bacterial growth incubated for 24 hrs by broth microdilution method. It counts as functional. Particulars: read-out: MIC100.
Series [4] relates to Acinetobacter baumannii. Kind of series: Antibacterial activity against Acinetobacter baumannii assessed as inhibition of bacterial growth incubated for 24 hrs by broth microdilution method. In kind it is functional. Particulars: read-out: MIC100.
Series [5] concerns Pseudomonas aeruginosa. Kind of series: Antibacterial activity against Pseudomonas aeruginosa assessed as inhibition of bacterial growth incubated for 24 hrs by broth microdilution method. It counts as functional. Particulars: read-out: MIC100.
Series [6] has as its system Moraxella catarrhalis. The series is described as follows: Antibacterial activity against Moraxella catarrhalis assessed as inhibition of bacterial growth incubated for 24 hrs by broth microdilution method. In kind it is functional. Conditions: read-out: MIC100.
The test system of series [7] is Escherichia coli. The series is described as follows: Antibacterial activity against Escherichia coli ECO+14-2 assessed as inhibition of bacterial growth incubated for 24 hrs by broth microdilution method. Conditions: read-out: MIC100. It counts as functional.
Series [8] relates to Escherichia coli. Kind of series: Antibacterial activity against Escherichia coli ECO+14-3 assessed as inhibition of bacterial growth incubated for 24 hrs by broth microdilution method. Conditions: read-out: MIC100. In kind it is functional.
In series [9] the test system is Escherichia coli. Kind of series: Antibacterial activity against Escherichia coli ECO-14-2 assessed as inhibition of bacterial growth incubated for 24 hrs by broth microdilution method. It counts as functional. Conditions: read-out: MIC100.
In series [10] the test system is Klebsiella pneumoniae. The series is described as follows: Antibacterial activity against Klebsiella pneumoniae KPN+14-8 assessed as inhibition of bacterial growth incubated for 24 hrs by broth microdilution method. In kind it is functional. Particulars: read-out: MIC100.
In series [11] the test system is Klebsiella pneumoniae. Kind of series: Antibacterial activity against Klebsiella pneumoniae KPN+14-10 assessed as inhibition of bacterial growth incubated for 24 hrs by broth microdilution method. In kind it is functional. Conditions: read-out: MIC100.
For series [12], the system named is Klebsiella pneumoniae. Kind of series: Antibacterial activity against Klebsiella pneumoniae KR15-2 assessed as inhibition of bacterial growth incubated for 24 hrs by broth microdilution method. Particulars: read-out: MIC100. It counts as functional.
The subject of series [13] is Acinetobacter baumannii. Kind of series: Antibacterial activity against Acinetobacter baumannii ABA15-4 assessed as inhibition of bacterial growth incubated for 24 hrs by broth microdilution method. In kind it is functional. Particulars: read-out: MIC100.
Series [14] concerns Acinetobacter baumannii. The series is described as follows: Antibacterial activity against Acinetobacter baumannii ABA15-5 assessed as inhibition of bacterial growth incubated for 24 hrs by broth microdilution method. It counts as functional. Particulars: read-out: MIC100.
Series [15] relates to Acinetobacter baumannii. The series is described as follows: Antibacterial activity against Acinetobacter baumannii ABA15-6 assessed as inhibition of bacterial growth incubated for 24 hrs by broth microdilution method. It counts as functional. Conditions: read-out: MIC100.
Series [16] concerns Acinetobacter baumannii. Kind of series: Antibacterial activity against Acinetobacter baumannii AR15-4 assessed as inhibition of bacterial growth incubated for 24 hrs by broth microdilution method. In kind it is functional. Conditions: read-out: MIC100.
For series [17], the system named is Pseudomonas aeruginosa. The series is described as follows: Antibacterial activity against Pseudomonas aeruginosa PAE15-3 assessed as inhibition of bacterial growth incubated for 24 hrs by broth microdilution method. In kind it is functional. Particulars: read-out: MIC100.
For series [18], the system named is Pseudomonas aeruginosa. Kind of series: Antibacterial activity against Pseudomonas aeruginosa PAE15-5 assessed as inhibition of bacterial growth incubated for 24 hrs by broth microdilution method. Particulars: read-out: MIC100. In kind it is functional.
Series [19] concerns Pseudomonas aeruginosa. Kind of series: Antibacterial activity against Pseudomonas aeruginosa PAE15-8 assessed as inhibition of bacterial growth incubated for 24 hrs by broth microdilution method. In kind it is functional. Conditions: read-out: MIC100.
Series [20] relates to Pseudomonas aeruginosa. Kind of series: Antibacterial activity against Pseudomonas aeruginosa PAE15-14 assessed as inhibition of bacterial growth incubated for 24 hrs by broth microdilution method. It counts as functional. Particulars: read-out: MIC100.
Series [21] has as its system Pseudomonas aeruginosa. The series is described as follows: Antibacterial activity against Pseudomonas aeruginosa PR15-1 assessed as inhibition of bacterial growth incubated for 24 hrs by broth microdilution method. It counts as functional. Particulars: read-out: MIC100.
In series [22] the test system is Pseudomonas aeruginosa. The series is described as follows: Antibacterial activity against Pseudomonas aeruginosa ATCC 27853 assessed as inhibition of bacterial growth incubated for 24 hrs by broth microdilution method. In kind it is functional. Particulars: read-out: MIC100.
In series [23] the test system is Moraxella catarrhalis. The series is described as follows: Antibacterial activity against Moraxella catarrhalis BCA14-7 assessed as inhibition of bacterial growth incubated for 24 hrs by broth microdilution method. In kind it is functional. Conditions: read-out: MIC100.
Series [24] has as its system Moraxella catarrhalis. Kind of series: Antibacterial activity against Moraxella catarrhalis BCA15-3 assessed as inhibition of bacterial growth incubated for 24 hrs by broth microdilution method. It counts as functional. Particulars: read-out: MIC100.
Series [25] concerns HK-2. Kind of series: Cytotoxicity against human HK-2 cells assessed as cell viability incubated for 72 hrs by CCK-8 assay. It counts as cell-based. Particulars: hk-2, 72 h.

Regarding `CCCCCc1ccc(CN[C@@H](CCN)C(=O)N[C@H](C(=O)N[C@@H](CCN)C(=O)N[C@H]2CCNC(=O)[C@H]([C@@H](C)O)NC(=O)[C@H](CCN)NC(=O)[C@H](CCN)NC(=O)[C@H](CC(C)C)NC(=O)[C@@H](Cc3ccccc3)NC(=O)[C@H](CCN)NC2=O)[C@@H](C)O)cc1`, the MIC in series [1] came to 2 µg/mL (≈ 1.63 µM); in [2] it was 0.5 µg/mL (≈ 0.409 µM); in series [3], 1 µg/mL (≈ 0.817 µM); in series [4], 0.25 µg/mL (≈ 0.204 µM); in series [5] it was 0.25 µg/mL (≈ 0.204 µM); in series [6], 8 µg/mL (≈ 6.54 µM). In addition, the MIC came out at 1 µg/mL (≈ 0.817 µM) in series [7]; 0.5 µg/mL (≈ 0.409 µM) in series [8]; 0.5 µg/mL (≈ 0.409 µM) in series [9]; 4 µg/mL (≈ 3.27 µM) in series [10]; 2 µg/mL (≈ 1.63 µM) in [11]; 1 µg/mL (≈ 0.817 µM) in series [12]. The MIC in [13] was found to be 0.5 µg/mL (≈ 0.409 µM); in [14], 0.25 µg/mL (≈ 0.204 µM); in series [15], 0.5 µg/mL (≈ 0.409 µM); in series [16] it was 0.25 µg/mL (≈ 0.204 µM); in series [17] it was 0.5 µg/mL (≈ 0.409 µM); in [18], 0.5 µg/mL (≈ 0.409 µM). Moreover, the MIC was found to be 0.5 µg/mL (≈ 0.409 µM) in series [19]; 0.5 µg/mL (≈ 0.409 µM) in series [20]; 0.5 µg/mL (≈ 0.409 µM) in [21]; 0.25 µg/mL (≈ 0.204 µM) in [22]; 8 µg/mL (≈ 6.54 µM) in [23]; 1 µg/mL (≈ 0.817 µM) in series [24].

`CC[C@H](C)CCCCC(=O)N[C@@H](CCN)C(=O)N[C@H](C(=O)N[C@@H](CCN)C(=O)N[C@H]1CCNC(=O)[C@H]([C@@H](C)O)NC(=O)[C@H](CCN)NC(=O)[C@H](CCN)NC(=O)[C@H](CC(C)C)NC(=O)[C@@H](Cc2ccccc2)NC(=O)[C@H](CCN)NC1=O)[C@@H](C)OC(=O)[C@@H](N)CC(=O)O`: the MIC in series [1] was 2 µg/mL (≈ 1.52 µM); in [2], 0.25 µg/mL (≈ 0.19 µM); in series [3], 0.5 µg/mL (≈ 0.379 µM); in [4] it was 0.125 µg/mL (≈ 0.0948 µM); in [5], 0.25 µg/mL (≈ 0.19 µM); in series [6], > 32 µg/mL. The Activity entry in series [25] is “Non-Toxic”.

As for `CCCCCCCC(=O)N[C@@H](CCN)C(=O)N[C@H](C(=O)N[C@@H](CCN)C(=O)N[C@H]1CCNC(=O)[C@H](Cc2ccccc2)NC(=O)[C@H](CCN)NC(=O)[C@H](CCN)NC(=O)[C@H](CC(C)C)NC(=O)[C@@H](Cc2ccccc2)NC(=O)[C@H](CCN)NC1=O)[C@@H](C)O`, the MIC in series [1] was 4 µg/mL (≈ 3.24 µM); in series [2] it was 2 µg/mL (≈ 1.62 µM); in series [3], 2 µg/mL (≈ 1.62 µM); in [4], 0.06 µg/mL (≈ 0.0486 µM); in series [5], 0.25 µg/mL (≈ 0.202 µM); in series [6] it was 2 µg/mL (≈ 1.62 µM). Moreover, the Activity result in series [25] is “Non-Toxic”.

On to `CC(C)CCCCC(=O)N[C@@H](CCN)C(=O)N[C@H](C(=O)N[C@@H](CCN)C(=O)N[C@H]1CCNC(=O)[C@H]([C@@H](C)O)NC(=O)[C@H](CCN)NC(=O)[C@H](CCN)NC(=O)[C@H](CC(C)C)NC(=O)[C@@H](Cc2ccccc2)NC(=O)[C@H](CCN)NC1=O)[C@@H](C)OC(=O)[C@@H]1CCCN1`, for which the MIC in [1] is 1 µg/mL (≈ 0.777 µM); in [2], 0.06 µg/mL (≈ 0.0466 µM); in [3] it was 0.5 µg/mL (≈ 0.389 µM); in series [5], 0.03 µg/mL (≈ 0.0233 µM); in series [6], > 32 µg/mL; in series [7] it was 0.5 µg/mL (≈ 0.389 µM). In addition, the MIC in series [8] came to 0.125 µg/mL (≈ 0.0972 µM); in series [9], 0.06 µg/mL (≈ 0.0466 µM); in series [10] it was 1 µg/mL (≈ 0.777 µM); in [11], 0.5 µg/mL (≈ 0.389 µM); in [12] it was 0.5 µg/mL (≈ 0.389 µM); in series [13] it was 0.03 µg/mL (≈ 0.0233 µM). The MIC in series [14] is 0.03 µg/mL (≈ 0.0233 µM); in [15], < 0.015 µg/mL; in [16], 0.03 µg/mL (≈ 0.0233 µM); in [17], 0.5 µg/mL (≈ 0.389 µM); in series [18], 0.25 µg/mL (≈ 0.194 µM); in series [19], 0.5 µg/mL (≈ 0.389 µM). Moreover, the MIC was 0.25 µg/mL (≈ 0.194 µM) in series [20]; 0.25 µg/mL (≈ 0.194 µM) in series [21]; 0.03 µg/mL (≈ 0.0233 µM) in series [22]; 32 µg/mL (≈ 24.9 µM) in series [23]; 1 µg/mL (≈ 0.777 µM) in series [24]. For the same molecule, in series [25], the Activity result was “Non-Toxic”.
